# Experimental data published in US9040713B2, “Methods of managing blood sugar levels and compositions related thereto” (EMORY UNIVERSITY, priority 2010, dated 2015).
# How the values were obtained:
# EGFR = EGFR phosphorylation in cells (immunoblotting); assay type: cell-based; settings: HEK293 cells, 10 μM, 15 min
# Description: (§1) (A) DDN and CSN activate IR and its downstream signaling in CHO-IR cells. […] The cell lysates were analyzed by immunoblotting with anti-phospho-IR antibodies, or immunoprecipitated by PY20 and analyzed using anti-IR and anti-IRS-1, respectively. (B) DDN and CSN induce IR phosphorylation in a dose-dependent manner. CHO-IR cells were treated with the small compounds at different concentrations for 15 min, and the IR phosphorylation was monitored by immunoprecipitation and immunoblotting. (C) DDN, CSN induce IR phosphorylation in a time-dependent manner. […] (D) DDN and CSN induce IR phosphorylation and its downstream signaling in a dose-dependent manner. […] (E) DDN and CSN cannot induce IGF-1R or EGFR phosphorylation. CHO-IGF-1R or HEK293 cells were treated with EGF (100 nM), IGF-1 (100 nM), DDN (10 μM) or CSN (10 μM) for 15 min. The cell lysates were analyzed by immunoblotting with anti-pIGF-1R and anti-pEGFR.
# (§2) (A) Chemical structure of 4524-E7. (B) Effect of 4524-E7 and other 1,4-naphthoquinone derivatives on IR phosphorylation in CHO-IR cells. CHO-IR cells were cultured in 96-well plates and treated with 5 μM compounds for 15 min at 37 C. Cells were lysed, and IR phosphorylations were tested by ELISA. The IR phosphorylation activities of the tested compounds were expressed as a percentage of the vehicle. (C) 4524-E7 and 1,4-naphthoquinone derivates activate IR and its downstream signaling in CHO-IR cells. […] The cell lysates were analyzed by immunoblotting with various indicated antibodies. The phosphorylated IR was immunoprecipitated using PY20 and analyzed by immunoblotting with anti-IR13 antibody. […] The phosphorylation of each receptor was determined by Western blot using specific antibodies as indicated. (E) 4524-E7 activates IR through its ICD. Upper panel: Diagram of chimaeric receptors. Lower panel: His-tagged wild-type IR, IGFR-IR, IR-IGFR, and IR-EGFR constructs were transfected into CHO cells followed vehicle or 5 μM 4524-E7 treatment for 30 min. Then the cells were lysated and the transfected receptor fused to His tag were pulled down with Ni+ beads, followed by western blot against anti-p-Tyr and anti-His. The cell lysates were tested with anti-p-Akt and anti-Akt.
# (§3) A cell-based ELISA assay was developed with an IR stably transfected Chinese Hamster Ovary (CHO-IR) cell line. The cells were seeded in a 96-well plate and treated with 10 μM (15 min) compounds. The cell lysates were subjected to the sandwich ELISA using immobilized anti-phosphotyrosine antibody and anti-IR antibody. […] Among the positive hits, 1,4-naphthoquinone compounds were identified that can selectively activate IR but not IGF-1R (FIG. 1A). […] Total IR tyrosine phosphorylation was further confirmed by immunoprecipitation using anti-phosphotyrosine (PY20) antibody (FIG. 2A, 3rd panel). […]
# IR = IR (Homo sapiens, UniProt P06213); experiment: Immunoblotting of IR phosphorylation and downstream signaling in CHO-IR cells; assay type: cell-based; design: expressed in transfected cells; host or cells: CHO (CHO-IR, gift from Dr. Nicholas Webster, UCSD)
# IR, sequence (P06213 763-1382 limits assumed): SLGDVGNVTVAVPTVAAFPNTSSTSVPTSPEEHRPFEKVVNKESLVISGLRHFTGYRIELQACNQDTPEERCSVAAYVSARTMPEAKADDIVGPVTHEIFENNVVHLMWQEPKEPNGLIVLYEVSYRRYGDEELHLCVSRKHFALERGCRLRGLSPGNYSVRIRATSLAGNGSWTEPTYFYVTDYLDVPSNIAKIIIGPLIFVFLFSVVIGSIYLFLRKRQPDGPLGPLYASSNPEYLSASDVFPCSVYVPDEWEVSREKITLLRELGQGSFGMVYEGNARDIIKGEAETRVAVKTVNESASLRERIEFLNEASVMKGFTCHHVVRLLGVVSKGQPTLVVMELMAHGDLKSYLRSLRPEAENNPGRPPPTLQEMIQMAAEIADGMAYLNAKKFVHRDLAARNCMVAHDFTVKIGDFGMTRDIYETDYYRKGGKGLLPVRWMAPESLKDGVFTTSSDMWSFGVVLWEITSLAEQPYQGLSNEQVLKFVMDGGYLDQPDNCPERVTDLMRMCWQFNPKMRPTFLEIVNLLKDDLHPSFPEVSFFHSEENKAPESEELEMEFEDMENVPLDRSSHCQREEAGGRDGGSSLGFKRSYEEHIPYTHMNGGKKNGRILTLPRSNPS
# IR, sequence (P06213 28-758 limits assumed): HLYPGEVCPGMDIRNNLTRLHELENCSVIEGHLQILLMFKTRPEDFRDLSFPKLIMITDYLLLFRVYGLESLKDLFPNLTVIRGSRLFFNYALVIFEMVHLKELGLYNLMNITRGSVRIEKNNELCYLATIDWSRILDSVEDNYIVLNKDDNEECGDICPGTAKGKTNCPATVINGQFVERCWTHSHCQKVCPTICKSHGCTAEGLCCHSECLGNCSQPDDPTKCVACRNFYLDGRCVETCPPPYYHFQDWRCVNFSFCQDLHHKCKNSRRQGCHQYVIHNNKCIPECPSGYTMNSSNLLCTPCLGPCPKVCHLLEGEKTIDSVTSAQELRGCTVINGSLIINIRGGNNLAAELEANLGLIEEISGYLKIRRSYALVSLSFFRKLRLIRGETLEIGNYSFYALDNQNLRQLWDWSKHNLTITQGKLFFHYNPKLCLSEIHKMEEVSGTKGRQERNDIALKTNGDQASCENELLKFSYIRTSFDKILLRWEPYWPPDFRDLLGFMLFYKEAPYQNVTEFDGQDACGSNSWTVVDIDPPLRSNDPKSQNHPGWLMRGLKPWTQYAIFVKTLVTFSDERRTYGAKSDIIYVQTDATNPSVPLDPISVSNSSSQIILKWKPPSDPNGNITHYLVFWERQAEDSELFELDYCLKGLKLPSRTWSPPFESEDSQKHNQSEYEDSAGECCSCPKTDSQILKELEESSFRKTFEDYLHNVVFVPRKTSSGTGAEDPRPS
# Description: The cell lysates were analyzed by immunoblotting with anti-phospho-IR antibodies, or immunoprecipitated by PY20 and analyzed using anti-IR and anti-IRS-1, respectively. […] The cell lysates were analyzed by immunoblotting with anti-pIGF-1R and anti-pEGFR. […]
# A cell-based ELISA assay was developed with an IR stably transfected Chinese Hamster Ovary (CHO-IR) cell line. […] The cell lysates were subjected to the sandwich ELISA using immobilized anti-phosphotyrosine antibody and anti-IR antibody.
# C57BL/6J mice = experiment: Lethality after administration to C57BL/6J mice; assay type: in vivo, mouse; settings: intraperitoneal, even at low doses (1 mg/kg)
# Description: However, CSN was lethal to the mice even at low doses (1 mg/kg) (data not shown). […] The kinetics of DDN in lowering blood glucose is different from that of insulin.
# IGF-1R = IGF-1R phosphorylation in cells (immunoblotting); assay type: cell-based; settings: CHO-IGF-1R cells, 10 μM, 15 min
# Description: as §1, §2, §3
compound,measurement,setting,value
"CSC1=C(SC)C(=O)c2ccccc2C1=O [CSN, 2,3-Bis-methylsulfanyl-1,4-naphthoquinone]",EGFR activation,EGFR,Neither IGF-1R nor EGFR was activated
same,time at which IR activation peaked,IR; 5 μM,60 min
same,time at which IR phosphorylation starts,IR; 5 μM,5 to 15 min
same,tyrosine phosphorylation of IRS-1,"IR; 5 μM, 15 min",also increased
same,tyrosine phosphorylation of the IR β subunit in Y1146 and Y1158/1162/1163,"IR; 5 μM, 15 min",strongly stimulated
same,concentration stimulating the IR signal cascades,"IR; DDN or CSN 30 min, insulin 15 min",5 µM
same,lethality,C57BL/6J mice,lethal to the animals
same,IGF-1R activation,IGF-1R,Neither IGF-1R nor EGFR was activated
